Measured values reported in ChEMBL document CHEMBL4184174 (Bioorg Med Chem Lett, 2018).

Assays:
[1] = target: T1, Alkaline phosphatase, tissue-nonspecific isozyme (Homo sapiens, UniProt P05186); assay: Inhibition of TNAP (unknown origin) in whole blood using pNPP as substrate
T1 sequence (P05186 whole entry): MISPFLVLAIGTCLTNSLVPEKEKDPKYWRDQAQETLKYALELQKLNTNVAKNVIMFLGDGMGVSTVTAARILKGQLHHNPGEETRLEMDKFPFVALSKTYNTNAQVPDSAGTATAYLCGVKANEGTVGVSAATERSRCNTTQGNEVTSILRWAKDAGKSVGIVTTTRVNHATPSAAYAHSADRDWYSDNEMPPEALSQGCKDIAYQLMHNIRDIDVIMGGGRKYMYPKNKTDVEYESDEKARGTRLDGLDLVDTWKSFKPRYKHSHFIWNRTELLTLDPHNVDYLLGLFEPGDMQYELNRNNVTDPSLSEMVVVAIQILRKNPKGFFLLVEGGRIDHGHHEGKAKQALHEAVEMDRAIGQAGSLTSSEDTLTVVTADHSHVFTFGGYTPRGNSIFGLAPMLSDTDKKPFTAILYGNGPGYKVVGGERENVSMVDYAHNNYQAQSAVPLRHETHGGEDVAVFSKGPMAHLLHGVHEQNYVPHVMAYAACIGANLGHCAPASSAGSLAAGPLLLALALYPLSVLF

[2] = target: T1, Alkaline phosphatase, tissue-nonspecific isozyme; assay: Inhibition of TNAP (unknown origin) using PPi as substrate
[3] = Cmax in mouse at 10 mg/kg, po; assay type: ADME, organism-based; design: dose 10 mg/kg, route oral; settings: in vivo
[4] = target: Alkaline phosphatase, placental type (Homo sapiens, UniProt P05187); assay: Inhibition of PLAP (unknown origin)
[5] = target: Intestinal-type alkaline phosphatase (Homo sapiens, UniProt P09923); assay: Inhibition of IAP (unknown origin)
Mus musculus [6] = assay: Oral bioavailability in mouse at 10 mg/kg; assay type: ADME, organism-based; settings: in vivo
[7] = Volume of distribution in mouse at 2 mg/kg, iv; assay type: ADME, organism-based; settings: in vivo
[8] = Half life in mouse at 10 mg/kg, po; assay type: ADME, organism-based; settings: in vivo
Mus musculus [9] = assay: (§1) AUC in mouse at 10 mg/kg, po; assay type: ADME, organism-based; settings: in vivo
Mus musculus [10] = assay: In vivo inhibition of TNAP in mouse plasma at 10 mg/kg, po administered as single dose measured at 24 hrs relative to control; assay type: functional
Mus musculus [11] = assay: In vivo inhibition of TNAP in mouse plasma at 10 mg/kg, po administered as single dose after 8 hrs relative to control; assay type: functional
[12] = Clearance in mouse plasma at 2 mg/kg, iv; assay type: ADME, organism-based
[13] = as §1; assay type: ADME, organism-based; settings: in vivo

Chain of Intestinal-type alkaline phosphatase (P09923 whole entry): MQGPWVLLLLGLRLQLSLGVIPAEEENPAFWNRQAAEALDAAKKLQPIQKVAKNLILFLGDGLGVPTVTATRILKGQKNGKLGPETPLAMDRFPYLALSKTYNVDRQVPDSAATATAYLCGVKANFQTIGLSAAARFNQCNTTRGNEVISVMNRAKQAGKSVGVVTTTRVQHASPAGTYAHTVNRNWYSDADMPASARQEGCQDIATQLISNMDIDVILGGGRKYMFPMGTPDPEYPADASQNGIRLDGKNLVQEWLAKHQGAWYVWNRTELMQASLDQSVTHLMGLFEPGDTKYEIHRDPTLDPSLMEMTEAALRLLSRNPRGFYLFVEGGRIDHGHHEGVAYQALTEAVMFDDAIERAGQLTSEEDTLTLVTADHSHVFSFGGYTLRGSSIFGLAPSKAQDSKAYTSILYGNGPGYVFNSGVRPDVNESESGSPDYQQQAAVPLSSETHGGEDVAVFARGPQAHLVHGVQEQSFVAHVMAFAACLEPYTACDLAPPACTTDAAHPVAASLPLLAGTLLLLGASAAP
Chain of Alkaline phosphatase, placental type (P05187 whole entry): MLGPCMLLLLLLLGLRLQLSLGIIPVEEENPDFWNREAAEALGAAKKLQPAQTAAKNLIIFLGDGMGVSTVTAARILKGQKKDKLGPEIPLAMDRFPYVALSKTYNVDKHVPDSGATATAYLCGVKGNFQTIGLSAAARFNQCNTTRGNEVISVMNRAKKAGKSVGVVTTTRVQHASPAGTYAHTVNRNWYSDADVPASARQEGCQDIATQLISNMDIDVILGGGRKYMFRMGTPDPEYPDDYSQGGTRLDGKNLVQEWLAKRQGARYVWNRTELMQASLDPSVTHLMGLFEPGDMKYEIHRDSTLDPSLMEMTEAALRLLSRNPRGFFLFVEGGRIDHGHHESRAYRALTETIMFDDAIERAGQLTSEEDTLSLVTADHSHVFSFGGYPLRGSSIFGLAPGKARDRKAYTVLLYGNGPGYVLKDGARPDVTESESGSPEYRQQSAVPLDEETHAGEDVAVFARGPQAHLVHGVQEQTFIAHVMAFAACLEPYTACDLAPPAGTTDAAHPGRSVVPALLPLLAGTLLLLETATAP

| SMILES | IC50 [1] [nM] | IC50 [2] [nM] | Cmax [3] [µg/mL] | IC50 [4] [nM] | IC50 [5] [nM] | F (Mus musculus [6]) [%] | Vd [7] [L/kg] | half-life [8] [h] | AUC (Mus musculus [9]) [µg·h/mL] | inhibition in vivo at 10 mg/kg (Mus musculus [10]) [%] | inhibition in vivo at 10 mg/kg (Mus musculus [11]) [%] | clearance [12] [mL/min/kg] | AUC [13] [µg·h/mL] |
| --- | --- | --- | --- | --- | --- | --- | --- | --- | --- | --- | --- | --- | --- |
| COc1ccc(-c2ccccc2)cc1S(=O)(=O)Nc1cccnc1 | > 20000 | 876 | – | – | – | – | – | – | – | – | – | – | – |
| COc1ccc(Cl)cc1S(=O)(=O)Nc1cncc(C(N)=O)c1 | 105 | – | 178 | > 80000 | > 80000 | 58 | 1.03 | 2.3 | 848 | 50 | > 75 | – | – |
| COc1ccc(Br)cc1S(=O)(=O)Nc1cncc(C(N)=O)c1 | – | – | 133 | – | – | 70 | 0.31 | 2.2 | 603 | – | – | – | – |
| COc1ccc(F)cc1S(=O)(=O)Nc1cncc(C(N)=O)c1 | – | – | 63 | – | – | > 100 | 0.88 | 3.7 | – | – | – | 16.8 | 141 |
